Reference: paper PMC10657792, “Downstream Allosteric Modulation of NMDA Receptors by 3-Benzazepine Derivatives” (Molecular Neurobiology, 2023)
≈ marks a conversion by molar mass, not a printed value. Where “and” joins values, the source holds several entries; their conditions need not be identical. Equal entries are not always repeated.

How the values were obtained:
GluN1a wt/ GluN2B wt = GluN1a wt/ GluN2B wt (Rattus norvegicus, UniProt P35439+Q00960); assay: TEVC recording of NMDAR currents in X. laevis oocytes, inhibition by compound; type: cell-based
GluN1a wt/ GluN2B wt, sequence (Q00960 27-1482, other chains not shown): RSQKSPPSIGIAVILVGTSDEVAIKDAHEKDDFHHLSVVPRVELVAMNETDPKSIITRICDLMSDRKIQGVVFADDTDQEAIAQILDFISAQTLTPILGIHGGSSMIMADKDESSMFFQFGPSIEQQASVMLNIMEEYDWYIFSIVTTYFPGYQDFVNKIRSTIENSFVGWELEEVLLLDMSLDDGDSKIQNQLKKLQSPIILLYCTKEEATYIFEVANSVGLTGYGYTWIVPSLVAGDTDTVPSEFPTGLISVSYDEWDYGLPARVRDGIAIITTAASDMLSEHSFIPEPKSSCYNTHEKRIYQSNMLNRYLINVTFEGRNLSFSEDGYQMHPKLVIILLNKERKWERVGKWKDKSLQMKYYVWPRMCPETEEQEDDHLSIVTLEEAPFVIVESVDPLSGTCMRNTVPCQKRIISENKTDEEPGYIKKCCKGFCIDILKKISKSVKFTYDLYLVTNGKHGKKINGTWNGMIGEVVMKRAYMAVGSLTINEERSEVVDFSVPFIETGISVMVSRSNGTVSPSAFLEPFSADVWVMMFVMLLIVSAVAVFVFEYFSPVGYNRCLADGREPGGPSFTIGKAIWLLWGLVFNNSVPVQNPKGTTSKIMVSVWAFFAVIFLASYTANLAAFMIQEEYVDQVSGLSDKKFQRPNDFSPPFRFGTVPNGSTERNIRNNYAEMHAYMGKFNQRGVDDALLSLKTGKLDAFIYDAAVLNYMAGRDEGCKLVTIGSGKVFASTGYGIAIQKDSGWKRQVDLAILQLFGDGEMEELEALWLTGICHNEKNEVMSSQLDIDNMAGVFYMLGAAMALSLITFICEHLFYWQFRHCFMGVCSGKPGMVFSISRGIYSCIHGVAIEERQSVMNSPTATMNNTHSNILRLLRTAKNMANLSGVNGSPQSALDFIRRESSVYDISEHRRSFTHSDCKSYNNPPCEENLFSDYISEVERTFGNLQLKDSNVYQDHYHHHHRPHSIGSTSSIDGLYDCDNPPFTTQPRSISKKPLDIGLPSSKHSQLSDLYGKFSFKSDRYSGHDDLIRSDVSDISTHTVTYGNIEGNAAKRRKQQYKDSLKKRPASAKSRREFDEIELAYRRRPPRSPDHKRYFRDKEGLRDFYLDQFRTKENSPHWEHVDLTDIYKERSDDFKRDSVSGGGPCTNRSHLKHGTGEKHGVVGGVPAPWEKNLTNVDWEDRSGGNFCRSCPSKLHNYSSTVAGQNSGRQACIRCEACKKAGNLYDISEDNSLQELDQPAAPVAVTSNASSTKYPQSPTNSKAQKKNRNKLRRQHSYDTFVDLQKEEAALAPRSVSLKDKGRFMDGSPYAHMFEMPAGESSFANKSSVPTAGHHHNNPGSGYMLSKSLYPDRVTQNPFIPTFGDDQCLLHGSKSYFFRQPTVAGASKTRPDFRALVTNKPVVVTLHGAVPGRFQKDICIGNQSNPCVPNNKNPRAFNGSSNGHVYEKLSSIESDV
Procedure: (§1) The NMDAR was expressed in stage V and VI oocytes originated from X. laevis. Oocytes were provided by Ecocyte Bioscience (Dortmund, Germany), and equimolar amounts of wild-type and mutated GluN1 and GluN2B cRNA were injected (0.8 ng each). The oocytes were incubated in Barth’s solution, containing (mmol l^−1): 88 NaCl, 1 KCl, 0.4 CaCl2, 0.33 Ca(NO3)2, 0.6 MgSO4, 5 TRIS–HCl, 2.4 NaHCO3, supplemented with 80 mg l^−1 theophylline, 63 mg l^−1 benzylpenicillin, 40 mg l^−1 streptomycin, and 100 mg l^−1 gentamycin and maintained at 18 °C until usage. After injection, the oocytes were incubated for 5 days at 18 °C. Subsequently, the activity of the expressed NMDARs in the oocytes was recorded by two-electrode voltage clamp (TEVC).
(§2) The compounds were retrieved as 10 mM stock solutions in DMSO and were subsequently diluted with agonist solution and adjusted to 0.1% DMSO concentration. Inhibition of each compound was measured via TEVC in X. laevis oocytes at room temperature using a Turbo Tec 10CX amplifier (NPI electronic, Tamm, Germany), NI USB 6221 DA/AD Interface (National Instruments, Austin, USA), and GePulse Software (Dr. Michael Pusch, Genova, Italy). Ba^2+-Ringer, consisting of 10 mM HEPES, 90 mM NaCl, 1 mM KCl, and 1.5 mM BaCl2, adjusted to pH 7.4, was used for TEVC measurements. Agonist solution containing 10 µM glycine and 10 µM (S)-glutamate was prepared in Ba^2+-Ringer, and the measurements were performed at a holding potential of − 70 mV, using electrodes with a glass capillary filled with 3 M KCl and a resistance between 0.5 and 1.5 MΩ. The compounds were tested by applying ascending concentrations, ranging from 1 to 30,000 nM, in at least six oocytes. Example traces for all recorded conditions can be found in Supplementary Figs. S2–S9.
(§3) TEVC data were analyzed using Ana (Dr. Michael Pusch, Genova, Italy), and statistics were performed using OriginPro 2020 (OriginLab Corporation, Northampton, USA). The inhibitory effect of each compound is calculated using the following equation: inhibition=1-Ic-Ih/Ia-Ih where Ih describes the current in the absence of agonists; Ia represents the steady-state current in the presence of the agonists; and Ic is defined as the steady-state after binding of agonist and compound. All dose response curves are fitted to the following logistic equation: y=A1-A2/1+x/x0^p+A2 where A1 describes the minimal inhibition of a compound and was set to 0; A2 represents the maximal inhibition of a compound; p is the slope of the curve; x0 is defined as the concentration at half-maximal inhibition; and x is the tested concentration. Data were statistically analyzed by one-way ANOVA and Tukey post-hoc mean comparison test in OriginPro 2020 (OriginLab Corporation, Northampton, USA). p values are indicated by * for p < 0.05, ** for p < 0.01, and *** for p < 0.001.

GluN1b wt/ GluN2B wt [1] = assay: as above; type: cell-based; conditions: X. laevis oocytes; higher for GluN1-1b
Procedure: as §1, §2, §3

GluN1b wt/ GluN2B wt [2] = biological target: GluN1b wt/ GluN2B wt (Rattus norvegicus, UniProt P35439+Q00960); assay: as above; type: cell-based
GluN1b wt/ GluN2B wt (Rattus norvegicus, UniProt P35439+Q00960), sequence (Q00960 27-1482, other chains not shown): as above
Procedure: as §1, §2, §3

GluN1b wt/ GluN2B N192A = GluN1b wt/ GluN2B N192A (Rattus norvegicus, UniProt P35439+Q00960, N192A); assay: TEVC recording in X. laevis oocytes, GluN2B mutant screening; type: cell-based
Procedure: (§4) Single point mutations were incorporated into template DNA (GluN1-1b wt/ pSGEM and GluN2B wt/ pSGEM) by using the QuikChange II XL site-directed mutagenesis kit (Agilent Technologies, Germany). Mutagenesis primers were designed using the QuikChange Primer Design Program (Agilent) and provided by Microsynth (Microsynth AG, Balgach, Switzerland). For mutation of the desired amino acid in the gene, PCR amplification was performed with the respective mutagenesis primers (Eppendorf MasterCycler Gradient, Eppendorf Hamburg, Germany). Mutations were verified by automated DNA sequencing. Constructs were linearized with PacI (GluN1) or NheI (GluN2B). cRNA was prepared byin vitrotranscription using the mMessage mMachine T7 kit (Life Technologies, Darmstadt, Germany).
as §1, §2, §3

GluN1a wt/ GluN2B F194A = GluN1a wt/ GluN2B F194A (Rattus norvegicus, UniProt P35439+Q00960, F194A); assay: as above; type: cell-based; conditions: fitted curve
Procedure: as §4, §1, §2, §3

GluN1b wt/ GluN2B F176A = GluN1b wt/ GluN2B F176A (Rattus norvegicus, UniProt P35439+Q00960, F176A); assay: as above; type: cell-based
Procedure: as §4, §1, §2, §3

GluN1b wt/ GluN2B F114A = GluN1b wt/ GluN2B F114A (Rattus norvegicus, UniProt P35439+Q00960, F114A); assay: as above; type: cell-based; conditions: fitted curve
Procedure: as §4, §1, §2, §3

[3] = biological target: GluN1a wt/ GluN2B N192A/F194A (Rattus norvegicus, UniProt P35439+Q00960, F194A/N192A); assay: as above; type: cell-based
GluN1a wt/ GluN2B N192A/F194A, sequence (Q00960 27-1482 N192A/F194A, other chains not shown): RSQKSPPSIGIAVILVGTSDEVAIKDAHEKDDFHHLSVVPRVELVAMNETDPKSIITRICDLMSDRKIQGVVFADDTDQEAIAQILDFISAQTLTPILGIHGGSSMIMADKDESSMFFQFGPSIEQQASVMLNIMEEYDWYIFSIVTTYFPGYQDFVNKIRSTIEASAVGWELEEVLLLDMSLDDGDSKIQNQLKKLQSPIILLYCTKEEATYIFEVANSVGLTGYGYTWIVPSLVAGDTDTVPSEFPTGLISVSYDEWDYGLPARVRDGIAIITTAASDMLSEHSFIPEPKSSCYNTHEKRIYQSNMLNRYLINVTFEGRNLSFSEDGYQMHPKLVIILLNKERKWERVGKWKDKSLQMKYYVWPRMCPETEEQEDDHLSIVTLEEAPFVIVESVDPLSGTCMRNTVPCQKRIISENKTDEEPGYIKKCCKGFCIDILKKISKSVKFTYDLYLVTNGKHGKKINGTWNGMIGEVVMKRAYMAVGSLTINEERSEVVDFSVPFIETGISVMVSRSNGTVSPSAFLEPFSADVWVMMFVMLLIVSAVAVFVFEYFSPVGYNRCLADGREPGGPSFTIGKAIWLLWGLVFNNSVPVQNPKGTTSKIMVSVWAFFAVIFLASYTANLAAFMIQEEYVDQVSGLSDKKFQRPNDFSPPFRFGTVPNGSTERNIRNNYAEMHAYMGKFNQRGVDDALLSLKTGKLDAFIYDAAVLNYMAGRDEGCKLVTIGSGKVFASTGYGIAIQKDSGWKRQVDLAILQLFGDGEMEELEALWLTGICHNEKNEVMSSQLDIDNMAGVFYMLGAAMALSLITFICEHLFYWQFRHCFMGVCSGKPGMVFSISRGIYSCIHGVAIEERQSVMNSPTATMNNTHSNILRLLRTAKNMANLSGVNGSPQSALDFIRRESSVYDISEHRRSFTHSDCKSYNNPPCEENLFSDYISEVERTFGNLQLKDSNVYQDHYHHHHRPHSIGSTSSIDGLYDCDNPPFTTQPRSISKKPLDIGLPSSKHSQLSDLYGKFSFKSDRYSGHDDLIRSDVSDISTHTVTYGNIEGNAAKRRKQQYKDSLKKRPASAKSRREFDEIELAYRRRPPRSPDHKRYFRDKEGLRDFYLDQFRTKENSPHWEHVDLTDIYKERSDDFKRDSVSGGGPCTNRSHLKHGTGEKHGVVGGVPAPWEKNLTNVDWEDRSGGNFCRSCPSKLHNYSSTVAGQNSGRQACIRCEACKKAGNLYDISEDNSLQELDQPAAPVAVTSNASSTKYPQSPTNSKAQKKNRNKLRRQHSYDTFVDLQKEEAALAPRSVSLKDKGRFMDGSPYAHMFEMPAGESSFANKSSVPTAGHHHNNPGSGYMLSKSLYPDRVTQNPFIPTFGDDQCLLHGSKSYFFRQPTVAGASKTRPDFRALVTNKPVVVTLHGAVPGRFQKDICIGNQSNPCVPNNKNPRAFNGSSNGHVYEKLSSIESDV

[4] = Solubility limit in TEVC compound solution; type: physicochemical; conditions: higher concentrations could not be tested in TEVC
[5] = oocytes, 10 µM glycine + 10 µM (S)-glutamate, -70 mV, fitted curve
[6] = agonists 10 µM glycine + 10 µM (S)-glutamate, fitted curve
[7] = agonists 10 µM glycine + 10 µM (S)-glutamate

- inhibition at 10 µM (GluN1a wt/ GluN2B wt; GluN1-1a/ GluN2B, compound concentration 10 μM, single oocytes): 88.1%
- inhibition at 30 µM (GluN1a wt/ GluN2B wt; GluN1-1a/ GluN2B, compound concentration 30 μM, single oocytes): 91.8%
- antagonist concentration at which oocytes were already inhibited (GluN1a wt/ GluN2B wt; TEVC example traces): 0.001 µM
- Hill coefficient (GluN1a wt/ GluN2B wt; fitted curve): 0.9
- IC50 (GluN1a wt/ GluN2B wt; [5]): 97 nM
- IC50 of splice variant containing exon 5 (GluN1-1b) relative to IC50 of GluN1-1a (GluN1b wt/ GluN2B wt [1]): sevenfold
- inhibition at 1 µM (GluN1b wt/ GluN2B wt [2]; GluN1-1b, compound 1000 nM, single oocyte): 72.1%
- inhibition at 10 µM (GluN1b wt/ GluN2B wt [2]; GluN1-1b, compound 10000 nM, single oocyte): 82.7%
- inhibition at 30 µM (GluN1b wt/ GluN2B wt [2]; GluN1-1b, compound 30000 nM, single oocyte): 84.9%
- inhibition at 30 µM (GluN1b wt/ GluN2B wt [2]; GluN1-1b/ GluN2B, compound concentration 30 μM, single oocytes): 86.1%
- antagonist concentration at which oocytes were inhibited (GluN1b wt/ GluN2B wt [2]; TEVC example traces): ~ 1 µM
- A2 (level of maximal inhibition) (GluN1b wt/ GluN2B wt [2]; fitted curve): 84.8%
- Hill coefficient (GluN1b wt/ GluN2B wt [2]; fitted curve): 6.2
- IC50 (GluN1b wt/ GluN2B wt [2]; [5]): 675 nM
- inhibition at 10 µM (GluN1b wt/ GluN2B N192A; GluN1-1b GluN2B N192A, compound concentration 10 μM, single oocytes): 69.9%
- inhibition at 30 µM (GluN1b wt/ GluN2B N192A; GluN1-1b GluN2B N192A, compound concentration 30 μM, single oocytes): 76.3%
- IC50 (GluN1b wt/ GluN2B N192A; [6]): 567 nM
- Hill coefficient (GluN1b wt/ GluN2B N192A; fitted curve): 1.3
- IC50 (GluN1a wt/ GluN2B F194A; [7]): 16600 nM
- Hill coefficient (GluN1a wt/ GluN2B F194A): 0.4
- inhibition at 1 µM (GluN1b wt/ GluN2B F176A; GluN1-1b/F176A, compound concentration 1 μM, single oocytes): 17.7%
- inhibition at 10 µM (GluN1b wt/ GluN2B F176A; GluN1-1b/F176A, compound concentration 10 μM, single oocytes): 29.9%
- IC50 (GluN1b wt/ GluN2B F176A; [6]): 13600 nM
- Hill coefficient (GluN1b wt/ GluN2B F176A; fitted curve): 0.5
- IC50 (GluN1b wt/ GluN2B F114A; [7]): 14200 nM
- Hill coefficient (GluN1b wt/ GluN2B F114A): 0.9
- inhibition at 1 µM ([3]; GluN1-1a GluN2B N192A/F194A, compound concentration 1 μM, single oocytes): 30.7%
- inhibition (%) ([3]; GluN1-1a GluN2B N192A/F194A, compound concentration 1 μM, single oocytes, 1 µM): 27.3896% and 29.45% and 20.653%
- inhibition at 30 µM ([3]; GluN1-1a GluN2B N192A/F194A, compound concentration 30 μM, single oocytes): 50.8%
- inhibition (%) ([3]; GluN1-1a GluN2B N192A/F194A, compound concentration 30 μM, single oocytes, 30 µM): 42.6495% and 45.6455% and 35.2023%
- Hill coefficient ([3]; fitted curve): 0.3
- solubility [4]: 30 µM (≈ 9.88 µg/mL)
Structure (SMILES): Oc1ccc2c(c1)CCN(CCCCc1ccccc1F)C[C@@H]2O [(R)-OF-NB1]
- inhibition (%) (GluN1b wt/ GluN2B wt [2]; GluN1-1b, compound 10 nM, single oocyte, 0.01 µM): -3.681% and 0.325% and 2.192% and 0.884% and -0.428% and 3.985% and 0.078% and 0.089%
- inhibition (%) (GluN1b wt/ GluN2B wt [2]; GluN1-1b/ GluN2B, compound concentration 0.001 μM, single oocytes, 0.001 µM): 0.0934% and -0.03337% and 1.1426% and -0.02965% and -0.02382% and 0.3791% and 0.2758%
- inhibition (%) (GluN1b wt/ GluN2B wt [2]; GluN1-1b/ GluN2B, compound concentration 0.01 μM, single oocytes, 0.01 µM): -0.2599% and -0.1168% and -0.1502% and 0.03902% and 1.645% and -0.1483% and 0.439% and 0.2911%
- inhibition (%) ([3]; GluN1-1a GluN2B N192A/F194A, compound concentration 10 μM, single oocytes, 10 µM): 48.3548% and 37.2275% and 43.7739% and 28.318%
